Data on 27 molecules can be found in patent publication US12528797B2, “Heterocyclic compounds for medical treatment” (C4 Therapeutics, Inc., priority 2019, dated 2026).

The assay concerns the target hCereblon(M1-L442)_hDDB1(M1-H1140) (Homo sapiens (Human), UniProt Q96SW2). Description: Fluorescence direct binding (tryptophan fluorescence titration). As to conditions: 20° C., excitation 280 nm, emission 340 nm, assay buffer 50 mM Hepes 7.4 200 mM NaCl; read-out: Fluorescence h-Cereblon_DDB1 Mean Kd_EQ. How it is done:
Fluorescence Direct Binding Protocol
Determination of the affinities of compounds to protein containing one or more tryptophan is measurable by monitoring the fluorescence emission in direct mode. The measurements depending on the protein available amounts are performed either manually in a cuvette on ISS-PC1 photon counting spectrofluorometer or automatically in well plates on a fluorescence plate reader device. Fluorescence titrations are performed at 20° C. in the chosen binding assay buffer by using a defined constant protein concentration against ligand concentration variations. Small aliquots of known ligand concentration solubilized in DMSO were added and the fluorescence, excited at 280 nm, was recorded at 340 nm. The fluorescence intensity was corrected for protein dilution and for the filter effect (Birdsall et al.). The corrected fluorescence intensity was plotted against the ligand concentration and fitted using a four-parameter sigmoidal function, from which the equilibrium dissociation constant Kd was computed using the law of mass action assuming a 1:1 protein-ligand complex (Eftink, 1997).
• 1) Optimization of measurement parameters to minimize protein consumption and to minimize the dilution effect and the DMSO content • 2) Titration measurements of the protein against ligand by at least 12 titration steps to obtain a good s-curve fit • 3) Repeat the same titration measurements with the ligand alone to enable correction • 4) Check the stability of the protein once by titration against DMSO alone • 5) Determination of the molar extinction coefficients of the ligand at 280 and 340 nm with help of an UV-spectrophotometer • 6) Use Excel template for the correction of the measured raw data Use GraphPad Prism software for the quadratic binding fit and the KD evaluation.

hCereblon(M1-L442)_hDDB1(M1-H1140), sequence (Q96SW2 whole entry): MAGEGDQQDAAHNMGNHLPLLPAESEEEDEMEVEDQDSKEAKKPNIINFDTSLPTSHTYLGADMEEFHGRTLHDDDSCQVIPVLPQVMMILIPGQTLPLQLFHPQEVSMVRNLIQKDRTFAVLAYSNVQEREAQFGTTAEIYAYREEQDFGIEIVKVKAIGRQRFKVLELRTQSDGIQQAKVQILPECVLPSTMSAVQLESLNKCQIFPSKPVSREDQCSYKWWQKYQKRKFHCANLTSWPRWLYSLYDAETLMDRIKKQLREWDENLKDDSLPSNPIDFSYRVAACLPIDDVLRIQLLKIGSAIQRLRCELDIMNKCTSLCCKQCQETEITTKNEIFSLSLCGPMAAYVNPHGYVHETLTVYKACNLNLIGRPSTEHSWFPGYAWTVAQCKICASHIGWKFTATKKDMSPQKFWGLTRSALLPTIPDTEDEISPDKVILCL
hCereblon(M1-L442)_hDDB1(M1-H1140), sequence (Q16531 whole entry partner): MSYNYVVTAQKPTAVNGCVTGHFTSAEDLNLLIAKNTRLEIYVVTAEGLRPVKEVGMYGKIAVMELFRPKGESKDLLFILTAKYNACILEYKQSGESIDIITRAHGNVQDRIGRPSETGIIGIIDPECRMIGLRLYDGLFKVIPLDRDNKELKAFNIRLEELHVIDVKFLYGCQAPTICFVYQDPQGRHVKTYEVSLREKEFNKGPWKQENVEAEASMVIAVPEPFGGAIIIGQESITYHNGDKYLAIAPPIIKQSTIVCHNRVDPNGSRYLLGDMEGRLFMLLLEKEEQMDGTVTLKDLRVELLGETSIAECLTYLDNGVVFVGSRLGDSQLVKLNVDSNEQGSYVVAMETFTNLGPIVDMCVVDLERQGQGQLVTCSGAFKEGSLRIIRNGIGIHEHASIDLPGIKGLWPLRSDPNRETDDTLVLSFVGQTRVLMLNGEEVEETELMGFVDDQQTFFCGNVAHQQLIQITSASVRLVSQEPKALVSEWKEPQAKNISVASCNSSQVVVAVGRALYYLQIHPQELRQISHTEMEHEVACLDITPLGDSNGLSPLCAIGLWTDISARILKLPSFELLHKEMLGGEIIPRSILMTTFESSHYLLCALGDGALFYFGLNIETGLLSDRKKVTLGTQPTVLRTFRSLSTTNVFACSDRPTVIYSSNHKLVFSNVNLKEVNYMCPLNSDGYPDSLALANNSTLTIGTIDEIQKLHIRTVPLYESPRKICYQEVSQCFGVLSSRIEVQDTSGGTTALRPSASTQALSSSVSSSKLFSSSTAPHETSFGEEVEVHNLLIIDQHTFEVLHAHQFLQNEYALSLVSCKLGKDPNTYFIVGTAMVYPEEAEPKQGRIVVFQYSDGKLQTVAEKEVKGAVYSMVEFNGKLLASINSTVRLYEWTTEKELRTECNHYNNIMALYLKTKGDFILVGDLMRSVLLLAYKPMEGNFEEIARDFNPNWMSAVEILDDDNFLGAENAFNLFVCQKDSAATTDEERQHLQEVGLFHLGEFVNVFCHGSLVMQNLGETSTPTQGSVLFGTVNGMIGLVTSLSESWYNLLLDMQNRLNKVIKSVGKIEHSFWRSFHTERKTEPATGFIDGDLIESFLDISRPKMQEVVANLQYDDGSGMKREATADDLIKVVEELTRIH

Take `O=C(Nc1ccc2[nH]c(=O)oc2c1)c1ccccc1` [Example 1, N-(2-Oxo-3H-1,3-benzoxazol-6-yl)benzamide]: the Kd was found to be 4 nM.

Turning to `O=C1Cc2cc(NC(=O)c3ccco3)ccc2N1` [Example 2, N-(2-Oxoindolin-5-yl)furan-2-carboxamide], the Kd was 7 nM.

For the molecule `Cc1ccccc1OCC(=O)Nc1ccc2[nH]c(=O)sc2c1` [Example 3, 2-(2-Methylphenoxy)-N-(2-oxo-3H-1,3-benzothiazol-6-yl)acetamide], the Kd was 14 nM.

With `CNC(=O)c1ccc2c(c1)nc(C(C)C)n2-c1ccc2c(c1)NC(=O)C2` [Example 4, 2-Isopropyl-N-methyl-1-(2-oxoindolin-6-yl)benzimidazole-5-carboxamide], the Kd stood at 2 nM.

As for `CNC(=O)c1ccc2c(c1)nc(C(C)C)n2-c1ccc2c(c1)CC(=O)N2` [Example 5, 2-Isopropyl-N-methyl-1-(2-oxoindolin-5-yl)benzimidazole-5-carboxamide], the Kd stood at 3 nM.

For the molecule `Nc1ccccc1Nc1ccc2[nH]c(=O)sc2c1` [Example 6, 6-(2-Aminoanilino)-3H-1,3-benzothiazol-2-one], the Kd was less than 1 nM.

Regarding `CC(C)c1nc2ccccc2n1-c1ccc2[nH]c(=O)sc2c1` [Example 7, 6-(2-Isopropylbenzimidazol-1-yl)-3H-1,3-benzothiazol-2-one], the Kd was 19 nM.

On to `Nc1ccccc1Nc1ccc2[nH]c(=O)oc2c1` [Example 8, 6-(2-Aminoanilino)-3H-1,3-benzoxazol-2-one], for which the Kd is 8 nM.

With `CC(C)c1nc2ccccc2n1-c1ccc2[nH]c(=O)oc2c1` [Example 9, 6-(2-Isopropylbenzimidazol-1-yl)-3H-1,3-benzoxazol-2-one], the Kd came to 108 nM.

As to `O=C1Cc2cc(C(=O)Nc3ccccc3)ccc2N1` [Example 10, 2-Oxo-N-phenylindoline-5-carboxamide], the Kd worked out at 91 nM.

Turning to `O=C(Nc1ccccc1)c1ccc2[nH]c(=O)oc2c1` [Example 11, 2-Oxo-N-phenyl-3H-1,3-benzoxazole-6-carboxamide], the Kd turned out to be 54 nM.

Consider `CC(=O)N1CCC(NC(=O)c2ccc3[nH]c(=O)oc3c2)CC1` [Example 12, N-(1-Acetyl-4-piperidyl)-2-oxo-3H-1,3-benzoxazole-6-carboxamide], for which the Kd came out at 6 nM.

Take `O=C(c1ccc2[nH]c(=O)oc2c1)N1CCc2ccccc21` [Example 13, 6-(Indoline-1-carbonyl)-3H-1,3-benzoxazol-2-one]: the Kd is 4 nM.

Consider `O=C(c1ccc2[nH]c(=O)oc2c1)N1CCc2cccnc21` [Example 14, 6-(2,3-Dihydropyrrolo[2,3-b]pyridine-1-carbonyl)-3H-1,3-benzoxazol-2-one], for which the Kd was determined as 24 nM.

Regarding `O=C(Nc1ccccc1)c1ccc2[nH]c(=O)sc2c1` [Example 15, 2-Oxo-N-phenyl-3H-1,3-benzothiazole-6-carboxamide], the Kd came out at 79 nM.

For `O=C(c1ccc2[nH]c(=O)sc2c1)N1CCc2ccccc21` [Example 16, 6-(Indoline-1-carbonyl)-3H-1,3-benzothiazol-2-one], the Kd was 28 nM.

In the case of `O=C1Cc2cc(C(=O)N3CCc4ccccc43)ccc2N1` [Example 17, 5-(Indoline-1-carbonyl)indolin-2-one], the Kd came out at 15 nM.

Consider `O=C(Nc1ccccc1)c1cnc2[nH]c(=O)oc2c1` [Example 18, 2-Oxo-N-phenyl-3H-oxazolo[4,5-b]pyridine-6-carboxamide], for which the Kd is 24 nM.

Take `CC(=O)N1CCC(NC(=O)c2cnc3[nH]c(=O)oc3c2)CC1` [Example 19, N-(1-Acetyl-4-piperidyl)-2-oxo-3H-oxazolo[4,5-b]pyridine-6-carboxamide]: the Kd came to 7 nM.

Turning to `O=C1Cc2cc(C(=O)N3CCc4ccccc43)cnc2N1` [Example 20, 5-(Indoline-1-carbonyl)-1,3-dihydropyrrolo[2,3-b]pyridin-2-one], the Kd was 13 nM.

Consider `CC(C)c1nc2ccccc2n1-c1ccc2c(c1)C(F)(F)C(=O)N2` [Example 21, 3,3-Difluoro-5-(2-isopropylbenzimidazol-1-yl)indolin-2-one], for which the Kd is less than 1 nM.

Consider `O=C(c1ccc2[nH]c(=O)oc2c1)N1Cc2cccc(O)c2C1` [Example 22, 6-(4-Hydroxyisoindoline-2-carbonyl)-3H-1,3-benzoxazol-2-one], for which the Kd turned out to be 2 nM.

Take `O=C(c1ccc2[nH]c(=O)oc2c1)N1Cc2cccc([N+](=O)[O-])c2C1` [Example 23, 6-(4-Nitroisoindoline-2-carbonyl)-3H-1,3-benzoxazol-2-one]: the Kd turned out to be 14 nM.

Take `O=C(Nc1ccc2c(c1)C(F)(F)C(=O)N2)C1CCCc2ccccc21` (stereo not drawn) [Example 24, N-(3,3-difluoro-2-oxo-indolin-5-yl)tetralin-1-carboxamide]: the Kd turned out to be 28 nM.

Take `O=C(Nc1ccc2c(c1)C(F)(F)C(=O)N2)c1coc2ccccc12` [Example 25, N-(3,3-difluoro-2-oxo-indolin-5-yl)benzofuran-3-carboxamide]: the Kd turned out to be 52 nM.

Turning to `CNC(=O)c1ccc2c(c1)nc(C(C)C)n2-c1cnc2c(c1)CC(=O)N2` [Example 26, 2-Isopropyl-N-methyl-1-(2-oxo-1,3-dihydropyrrolo[2,3-b]pyridin-5-yl)benzimidazole-5-carboxamide], the Kd was found to be 7 nM.

For the molecule `CC(C)c1nc2ccccc2n1-c1cnc2c(c1)CC(=O)N2` [Example 27, 5-(2-Isopropylbenzimidazol-1-yl)-1,3-dihydropyrrolo[2,3-b]pyridin-2-one], the Kd is less than 1 nM.
